Results on 4 molecules are retold here after patent US20230263774A1, “OPTIMIZED SURGERY PROTOCOL AND KITS” (Steadman Philippon Research Institute, priority 2020, published 2023).

The test system of assay [1] is Z24−/− mice. The assay can be described thus: Senolytic treatment of progeroid Z24−/− mice, articular cartilage degeneration / OA. In kind it is in vivo. The settings on record: for incidence/severity of age-related disorders including osteoarthritis (OA): progeroid mice accelerated aging model. The source says:
The Zmpste24−/− (Z24−/−) model of Hutchinson-Gilford Progeria Syndrome (HGPS) was used to model not only HGPS musculoskeletal decline, but also as a pre-clinical aging model due to its predictable and accelerated aging phenotypes. Z24−/− animals are short lived (˜6 months) and have severe musculoskeletal abnormalities including weight loss, dystonia, sarcopenia, osteoporosis and as reported herein, early signs of bone loss and spontaneous osteoarthritis (OA).
As a proof of concept for the potential of senolytics to reduce AC degeneration, a pilot study was conducted with Dasatinib+Quercitin (D/Q; 5 mg/kg; 50 mg/kg). Z24−/− mice were administered D/Q via oral gavage as a single dose (D/Qsin) at 4 months of age, or monthly dose starting at 2 months of age (D/Qmul) prior to sacrifice at 5 months.

Assay [2] concerns human adipose-derived stem cells (ADSCs). Briefly: Senescent cells in culture-expanded adipose-derived stem cells, staining for senescence-associated heterochromatin foci (H2AX, H3K9). In kind it is cell-based. The source says:
In preliminary experiments (FIG. 4), pre-existing senescent cells were found in cultured human adipose-derived stem cells (ADSCs). The ability of these cells to produce SASPs can induce significant damage to other stem cells or endogenous cells once re-administered into the intra-articular space. Thus, avoiding the proliferation of senescent cells from long-term expansion is critical to prevent these cells from compromising the ability of adult stem cells to repair cartilage. […] ADSCs from a young person (YF) and old person (OF) were cultured to passage 4 using normal proliferation media (DMEM/F-12, 10% FBS, 1% penicillin/streptomycin). The cells were subsequently treated with 50 μM of Fisetin for 24 hours and then cultured for 48 hours. Senescent cells were identified using antibodies for senescence-associated heterochromatin foci. […] These experiments support that Fisetin can eliminate senescent cells and SASPs in expanded stem cell populations, and this may apply to harvested tissues such as BMC from older OA patients that likely contain senescent cells (see FIGS. 2A-4, above).

Assay [3] relates to osteochondral defect in the patellar groove of New Zealand White rabbits. Briefly: Rabbit osteochondral defect + bone marrow stimulation (BMS) with oral Fisetin, oral Losartan and/or BMAC. Conditions: for Microscopic evaluation and micro-CT: 12 weeks postoperatively, with or without BMAC, preliminary; for healing capacity of BMS-mediated osteochondral defects: compared with BMS alone, preliminary results. In kind it is in vivo. The procedure: Bone Marrow Collection and BMAC Processing for Autologous Transplant: New Zealand White rabbits were anesthetized to collect bone marrow aspirate (BMA) using an 18 G heparinized spinal needle through both iliac crests simultaneously by two surgeons for the purpose of preparing bone marrow aspirate concentrate (BMAC). Bone marrow samples were collected in 10 ml syringes containing ACD-A as an anticoagulant (˜1.5 ml of ACD-A per 10 ml sample), processed under sterile BSCs, and a benchtop centrifuge was used to prepare BMACs. Filters were also used for BMA prior to processing into BMACs. These procedures were performed under sterile conditions.
A 5 mm diameter osteochondral defect was created in the patellar groove of bilateral knees for 64 New Zealand White rabbits (128 knees). Under a sterile technique, a midline 3 cm incision was made in a knee flexed at approximately 30° and approached intra-articularly through a medial parapatellar incision. The patella was dislocated, and a 5 mm diameter osteochondral defect was created in the patellar groove (depth: 2 mm), followed by BMS. To allow bone marrow MSCs to be introduced into the defect space, five equally spaced holes of 2 mm depth were drilled into the subchondral bone using a 0.7 mm burr. […] Once the creation of the osteochondral defect and the BMS procedure was completed, the joint capsule was closed and 0.5 ml of BMAC was injected into the joint cavity of the left knee.
(§1) Post-surgical evaluations were to be conducted at two time points: 6 & 12 weeks. Autologous BMAC was injected into the unilateral knee joint cavity immediately after surgery, with no BMAC injection on the other side. Each rabbit was orally treated with Fisetin, Losartan, or a combination of the two biologics from the day after surgery until the day of euthanasia, for comparison with the untreated group. Rabbits were sacrificed 6 weeks or 12 weeks postoperatively. The experimental groups were as follows (N-8 per group): 1) OD+BMS; 2) OD+BMS+oral Fisetin; 3) OD+BMS+oral Losartan; 4) OD+BMS+oral Fisetin+oral Losartan; 5) OD+BMS+BMAC; 6) OD+BMS+BMAC+oral Fisetin; 7) OD+BMS+BMAC+oral Losartan; and 8) OD+BMS+[…].

Assay [4] concerns Superoxide Dismutase 1 (SOD1). The assay can be described thus: qPCR gene expression analysis of synovium harvested from the knee joint (rabbit OD + BMS study). In kind it is in vivo, New Zealand White rabbits. The settings on record: Fisetin-treated group vs control group (p<0.01). Here is the method:
as §1

Assay [5] deals with PBMCs from fresh human peripheral blood. Briefly: Fisetin treatment of isolated PBMCs, C12FDG / DRAQ7 flow cytometry. It counts as cell-based. The source says:
A flow cytometry-based approach to assess senescent total PBMCs from fresh human peripheral blood was optimized. Cells were identified using FSC and SSC controls (FIG. 19A), while senescent cells, or C12FDG+ events, were identified with an emission of 514 nm (green channel).
To examine cellular phenotypes of C12FDG-stained cells, low, moderate, and high populations were sorted using FACS for two study participants (FIG. 20A). […] Using the same methodology, the rate and senolytic efficacy of Fisetin treatment were determined on PBMCs directly at 1, 4, 18, and 24 hr timepoints. […] Furthermore, the rate of senolytic activity of Fisetin was faster versus other known senotherapeutic drugs such as metformin, dasatinib, or quercetin (FIG. 21D).
Thus, it was next tested whether the reduction of highly senescent cells by Fisetin was associated with co-incident cell death. To this end, cells were co-stained with the viability stain DRAQ7.
A general note: Flow cytometry measures light scatter and fluorescence of single cells or particles in a stream.

For assay [6], the system named is senescent CD3+ T-Cells and plasma biomarkers. The assay can be described thus: Single case: patient on Fisetin, senescent CD3+ T-Cells (C12FDG) and plasma biomarkers. Conditions: 150 days of Fisetin 100 mg/day. It counts as in vivo, human. Here is the method:
Another flow cytometry-based approach was optimized to assess senescent total PBMCs and CD3+ T-Cells from fresh human peripheral blood. For this approach, T-Cells were isolated from PBMCs, washed, then stained with the senescence marker C12FDG for 1 hr, and then used for flow cytometry analysis. Cells were identified using FSC and SSC controls, while senescent cells, or C12FDG+ events, were identified with an emission of 514 nm (green channel).
Thus, it was tested whether Fisetin could reduce senescent T-Cells and plasma biomarkers for OP in a single patient enrolled in the study that disclosed Fisetin use between blood draws. […] This was commensurate with a reduction in OP markers OPG, OPN, and SOST in addition to the pro-inflammatory SASP marker TNF-α (FIG. 25B). […] In addition, in a single case study, C12FDG staining was sensitive enough to detect reductions in senescent T-Cells associated with reduction in OP and SASP biomarkers following Fisetin therapy.

Assay [7] relates to bone marrow mesenchymal stem cells (BM-MSCs). Briefly: Senescent cells in bone marrow mesenchymal stem cells after Fisetin, C12FDG flow cytometry. It counts as cell-based, human. The settings on record: 33 μM Fisetin 24 hours, passage 3. The procedure:
Reduction in senescent cells in BMSCs after senolytic treatment: To determine a reduction in senescent cells in bone marrow stem cells after senolytic therapy, approximately 5 mL of bone marrow concentrate were obtained from a person. The BMC samples were immediately processed further to isolate the mononuclear layer and plated in a T25 flask to expand BM-MSCs. Bone marrow cells were pre-plated for 3-weeks in basal culture medium (CM) and passaged with CM+Fibroblast Growth Factor (FGF) to expand bone marrow mesenchymal stem cells (BM-MSCs). At passage 3, confluent BM-MSCs were treated with CM+FGF, 33 μM of DMSO, or 33 μM of Fisetin+GM+FGF for 24-hours in a 12-well plate. Then, […] of bafilomycin (inhibits lysosomal acidification) and […] of C12FDG (senescent label) were used to assess senescence via flow cytometry. In BM-MSCs at passage 3, the number of senescent in the Fisetin treated BM-MSCs was reduced by approximately 24% compared to the DMSO treated BM-MSCs, and approximately a 5% reduction of senescent cells was observed when compared to control BM-MSCs (FIG. 27).

Assay [8] has as its system osteochondral defect in the patellar groove of New Zealand White rabbits. The assay can be described thus: Rabbit osteochondral defect model, microfracture plus oral Losartan. In kind it is in vivo. The procedure: An osteochondral defect (diameter: 5 mm, depth: 2 mm) was made in the patellar groove of 48 New Zealand White rabbits. The rabbits were divided into 3 groups (8/group/time point): control (osteochondral defect only), microfracture (defect+microfracture), and Losartan (defect+microfracture+Losartan). For the Losartan group, a dose of 10 mg/kg/day of Losartan was orally administrated by mixing with the chew treat daily.

Assay [9] shares this test system. The settings on record: 6 weeks after surgery; Losartan 10 mg/kg/day oral; cited from earlier work.

Entries after “also recorded” stand apart in the source; their conditions may differ.

Turning to `CO[C@H]1/C=C\C=C(/C)C(=O)NC2=CC(=O)C(NCCN(C)C)=C(C[C@@H](C)C[C@H](OC)[C@H](O)[C@@H](C)/C=C(\C)[C@@H]1OC(N)=O)C2=O` [Alvespimycin], the “incidence/severity of age-related disorders including osteoarthritis (OA)” value (from here on “incidence/severity”) in [1] is reported as “can reduce”.

Take `O=c1c(O)c(-c2ccc(O)c(O)c2)oc2cc(O)cc(O)c12` [Quercetin]: the “incidence/severity” value in assay [1] is on record as “can reduce”.

Consider `O=c1c(O)c(-c2ccc(O)c(O)c2)oc2cc(O)ccc12` [Fisetin, 2-(3,4-dihydroxyphenyl)-3,7-dihydroxychromen-4-one], for which, in [2] (50 μM Fisetin for 24 hours, then cultured 48 hours, passage 4 ADSCs from young and old female), the “number of senescent cells in the expanded ADSCs in vitro” value is “significantly reduced”. In assay [2] (FIG. 4, senescence quantified by H2AX and H3K9 staining), the “-H2AX and H3K9 in Adipose Derived Stem Cells” value was “reduces”. Besides, the articular cartilage degeneration result in assay [1] (murine model of natural and accelerated (progeria) aging) was “delay”. The “incidence/severity” value in [1] is on record as “can reduce”. Besides, the “Macroscopic assessment, gross images compared to the control group” value in assay [3] (6 weeks postoperatively, control = BMS, without medication, without BMAC) is reported as “significant improvement”. In assay [3], the “Microscopic evaluation and micro-CT” value was “trend toward improvement”; the “healing capacity of BMS-mediated osteochondral defects” value was “enhanced”. For the same molecule, the “expression level of Superoxide Dismutase 1 (SOD1) in the synovium” value in assay [4] is recorded as “significantly higher”. Besides, in assay [5] (Fisetin on PBMCs directly), the “time of maximum reduction of high senescent cells” value was found to be 4 h and the “time to significant reduction of high senescent cells” value was at most 1 h. Further, the “high senescent cell counts and percent senescent cells” value in assay [5] (Fisetin on PBMCs directly, timepoints 1, 4, 18, 24 hr) is “significantly reduced”. In addition, the “DRAQ7+ cells (cell death) with decrease in highly senescent cells” value in [5] (co-stained with viability stain DRAQ7, 1 and 4 hrs) is reported as “concomitant increases”. For the same molecule, the “effect on highly senescent cells vs moderately senescent cells” value in assay [5] (isolated PBMCs (FIG. 22D)) is “primarily affect only highly senescent cells and not moderately senescent cells; also recorded: selectively kills highly senescent cells”. Moreover, the “rate of senolytic activity” value in [5] (versus metformin, dasatinib, or quercetin (FIG. 21D)) was “faster”. For the same molecule, the “levels of moderately and highly senescent CD3+ T-Cells” value in [6] is listed as “reduces”. In assay [6] (pre- vs. post-Fisetin), the “OP marker OPG in plasma” value was “reduction”, the “OP marker OPN in plasma” value is recorded as “reduction”, the “OP marker SOST in plasma” value is on record as “reduction” and the “pro-inflammatory SASP marker TNF-α in plasma” value was “reduction”. The “reduction of number of senescent cells in BM-MSCs” value in assay [7] (compared to DMSO treated BM-MSCs) is recorded as “approximately 24%”. Besides, the “reduction of senescent cells in BM-MSCs” value in assay [7] (compared to control BM-MSCs (CM+FGF)) is “approximately 5%”.

Regarding `CCCCc1nc(Cl)c(CO)n1Cc1ccc(-c2ccccc2-c2nn[nH]n2)cc1` [Losartan], the ICRS macroscopic score in assay [8] (12 weeks, Losartan 10 mg/kg/day oral + microfracture) is recorded as 11.7±0.5. For the same molecule, in assay [8] (Losartan 10 mg/kg/day oral + microfracture), the “modified O'Driscoll score (based on Safranin O staining) compared to the other 2 groups” value is given as “significantly higher”. Further, the “Immunohistochemistry staining of cartilage (Col2)” value in assay [8] (Losartan treatment group) is on record as “nearly normal structure with hyaline-like column-arranged chondrocytes”. Also, in assay [3], the “Microscopic evaluation and micro-CT” value is given as “trend toward improvement”; the “healing capacity of BMS-mediated osteochondral defects” value was “enhanced”. Further, in assay [9], the “articular cartilage repair compared to microfracture or control groups” value is reported as “significantly improved”.
